Experimental data as given in ChEMBL document CHEMBL1201862, “PubChem BioAssay data set” (2004).
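Assay format: 96-well plates, 48-hour exposure. Abbreviation: GI50, concentration required for 50% inhibition of growth.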 Activity calls are given as the source filed them. Rule as the data show it: active = GI50 up to about 1.1 µM and inactive = higher.

How the values were obtained:
Experiment in all cases: inhibition of tumour cell growth, NCI panel, 48 h
786-0 = tested on: 786-0
A498 = tested on: A498
A549 = tested on: A549
ACHN = tested on: ACHN
CAKI-1 = tested on: CAKI-1
CCRF-CEM = tested on: CCRF-CEM
COLO 205 = tested on: COLO 205
DLD-1 = tested on: DLD-1
DMS-114 = tested on: DMS-114
DMS-273 = tested on: DMS-273
EKVX = tested on: EKVX
HCC 2998 = tested on: HCC 2998
HCT-116 = tested on: HCT-116
HCT-15 = tested on: HCT-15
HOP-18 = tested on: HOP-18
HOP-62 = tested on: HOP-62
HOP-92 = tested on: HOP-92
HT-29 = tested on: HT-29
IGROV-1 = tested on: IGROV-1
K562 = tested on: K562
KM-20L2 = tested on: KM-20L2
KM12 = tested on: KM12
LOX IMVI = tested on: LOX IMVI
LXFL 529 = tested on: LXFL 529
M14 = tested on: M14
M19-MEL = tested on: M19-MEL
MOLT-4 = tested on: MOLT-4
Malme-3M = tested on: Malme-3M
NCI-H226 = tested on: NCI-H226
NCI-H23 = tested on: NCI-H23
NCI-H460 = tested on: NCI-H460
OVCAR-3 = tested on: OVCAR-3
OVCAR-4 = tested on: OVCAR-4
OVCAR-5 = tested on: OVCAR-5
OVCAR-8 = tested on: OVCAR-8
RPMI-8226 = tested on: RPMI-8226
RXF 631 = tested on: RXF 631
SF-268 = tested on: SF-268
SF-295 = tested on: SF-295
SF-539 = tested on: SF-539
SK-MEL-28 = tested on: SK-MEL-28
SK-MEL-2 = tested on: SK-MEL-2
SK-MEL-5 = tested on: SK-MEL-5
SK-OV-3 = tested on: SK-OV-3
SN12C = tested on: SN12C
SNB-19 = tested on: SNB-19
SNB-75 = tested on: SNB-75
SNB-78 = tested on: SNB-78
SW-620 = tested on: SW-620
TK-10 = tested on: TK-10
U-251 = tested on: U-251
UACC-257 = tested on: UACC-257
UACC-62 = tested on: UACC-62
UO-31 = tested on: UO-31
XF498 = tested on: XF498

## CC1=NN(C(=O)CC(=O)NC(=O)CC(=O)Nc2ccccc2F)C(=O)C1/N=N/c1ccc([N+](=O)[O-])cc1 (stereo not given)
786-0
  GI50: 27.7 µM (inactive)
A498
  GI50: 34.3 µM (inactive)
A549
  GI50: 35 µM (inactive)
ACHN
  GI50: 30.1 µM (inactive)
CAKI-1
  GI50: 63.1 µM (inactive)
CCRF-CEM
  GI50: 33.3 µM (inactive)
COLO 205
  GI50: 31.2 µM (inactive)
DLD-1
  GI50: 42.3 µM (inactive)
DMS-114
  GI50: 21.1 µM (inactive)
DMS-273
  GI50: 39.1 µM (inactive)
EKVX
  GI50: 35.1 µM (inactive)
HCC 2998
  GI50: 71.6 µM (inactive)
HCT-116
  GI50: 21 µM (inactive)
HCT-15
  GI50: 33.7 µM
HOP-18
  GI50: 31.5 µM (inactive)
HOP-62
  GI50: 56.5 µM (inactive)
HOP-92
  GI50: 51.4 µM (inactive)
HT-29
  GI50: 19.8 µM (inactive)
IGROV-1
  GI50: 52 µM (inactive)
K562
  GI50: 28.1 µM (inactive)
KM-20L2
  GI50: 29.8 µM (inactive)
KM12
  GI50: 56.1 µM (inactive)
LOX IMVI
  GI50: 19.6 µM (inactive)
LXFL 529
  GI50: 37.2 µM (inactive)
M14
  GI50: 57.4 µM (inactive)
M19-MEL
  GI50: 30.3 µM (inactive)
MOLT-4
  GI50: 39.3 µM (inactive)
Malme-3M
  GI50: 39 µM (inactive)
NCI-H226
  GI50: 33.1 µM (inactive)
NCI-H23
  GI50: 51.9 µM (inactive)
NCI-H460
  GI50: 37.1 µM (inactive)
OVCAR-3
  GI50: 28.6 µM (inactive)
OVCAR-4
  GI50: 29.9 µM (inactive)
OVCAR-5
  GI50: 97.7 µM (inactive)
OVCAR-8
  GI50: 47.6 µM (inactive)
RPMI-8226
  GI50: 22.6 µM (inactive)
RXF 631
  GI50: 30.2 µM (inactive)
SF-268
  GI50: 82.2 µM (inactive)
SF-295
  GI50: 37.2 µM (inactive)
SF-539
  GI50: > 100 µM (inactive)
SK-MEL-28
  GI50: > 100 µM (inactive)
SK-MEL-2
  GI50: > 100 µM (inactive)
SK-MEL-5
  GI50: 44.4 µM (inactive)
SK-OV-3
  GI50: 45.3 µM (inactive)
SN12C
  GI50: > 100 µM (inactive)
SNB-19
  GI50: 60.1 µM (inactive)
SNB-75
  GI50: 34.2 µM (inactive)
SNB-78
  GI50: > 100 µM (inactive)
SW-620
  GI50: 20 µM (inactive)
TK-10
  GI50: 44.1 µM (inactive)
U-251
  GI50: 21.3 µM (inactive)
UACC-257
  GI50: 29.6 µM (inactive)
UACC-62
  GI50: 55.3 µM (inactive)
UO-31
  GI50: 26.7 µM (inactive)
XF498
  GI50: 28.3 µM (inactive)
